Assay results reported in US20150368296A1, “Method for preventing or treating heart diseases by using a composition containing an isolated peptide” (Tunghai University, priority 2014, published 2015).

Tests used:
Assay type in all cases: in vivo
Bcl-2 protein = assay: Western blot of Bcl-2 in heart tissue of high-fat diet mice; details: high-fat diet C57BL/6 mice, 5, 10 and 25 mg/kg/day intraperitoneally (groups 3 to 5) vs group 2 (high-fat diet, saline); relative to tubulin
Description: (§1) The male C57BL/6 mice at the age of 6 weeks were divided into 5 groups for 8 mice in each group. […]
(§2) Protein concentration of the extract was determined by Lowry's protein assay method. […]
(§3) The protein extraction of the mice heart tissues from the each group in example 2 were processed by the western blot method in example 3 to observe the expressions of related apoptosis regulatory proteins in the mice heart tissues from the each group. The results were shown at FIGS. 2 and 3, wherein the tubulin was used for an internal control in FIG. 2 and the expression levels of related apoptosis regulatory proteins were calculated basing on the expression level of tubulin in each figure of FIG. 3.

cytochrome C = assay: Western blot of cytochrome C in heart tissue of high-fat diet mice; details: high-fat diet C57BL/6 mice, 5, 10 and 25 mg/kg/day intraperitoneally (groups 3 to 5) vs group 2 (high-fat diet, saline); relative to tubulin
Description: as §1, §2, §3

caspase-3 = assay: Western blot of activated caspase-3 in heart tissue of high-fat diet mice; details: high-fat diet C57BL/6 mice, 5, 10 and 25 mg/kg/day intraperitoneally (groups 3 to 5) vs group 2 (high-fat diet, saline); relative to tubulin
Description: as §1, §2, §3

[1] = system: nuclear factor of activated T-cells C3 (NFTA-C3); assay: Western blot of NFTA-C3 in heart tissue of high-fat diet mice; details: high-fat diet C57BL/6 mice, 5, 10 and 25 mg/kg/day intraperitoneally (groups 3 to 5) vs group 2 (high-fat diet, saline); relative to tubulin
Description: as §1, §2
(§4) The protein extraction of the mice heart tissues from the each group in example 2 were processed by the western blot method in example 3 to observe the expressions of nuclear factor of activated T-cells C3 (NFTA-C3) and calcineurin in the mice heart tissues from the each group. The results were shown at FIGS. 4 and 5, wherein the tubulin was used for an internal control in FIG. 4 and the expression levels of NFTA-C3 and calcineurin were calculated basing on the expression level of tubulin in each figure of FIG. 5.

calcineurin = assay: Western blot of calcineurin in heart tissue of high-fat diet mice; details: high-fat diet C57BL/6 mice, 5, 10 and 25 mg/kg/day intraperitoneally (groups 3 to 5) vs group 2 (high-fat diet, saline); relative to tubulin
Description: as §1, §2, §4

STAT-3 = assay: Western blot of STAT-3 in heart tissue of high-fat diet mice; details: high-fat diet C57BL/6 mice, 5, 10 and 25 mg/kg/day intraperitoneally (groups 3 to 5) vs group 2 (high-fat diet, saline); relative to tubulin
Description: as §1, §2
(§5) The protein extraction of the mice heart tissues from the each group in example 2 were processed by the western blot method in example 3 to observe the expressions of the related signal transduction proteins of heart hypertrophy including: STAT-3, IL-6, MEK-5 and ERK-5. The results were shown at FIGS. 6 and 7, wherein the tubulin was used for an internal control in FIG. 6 and the expression levels of the related signal transduction proteins of heart hypertrophy in the mice heart tissues from each group was calculated basing on the expression level of tubulin in FIG. 7.

IL-6 = assay: Western blot of IL-6 in heart tissue of high-fat diet mice; details: high-fat diet C57BL/6 mice, 5, 10 and 25 mg/kg/day intraperitoneally (groups 3 to 5) vs group 2 (high-fat diet, saline); relative to tubulin
Description: as §1, §2, §5

MEK-5 = assay: Western blot of MEK-5 in heart tissue of high-fat diet mice; details: high-fat diet C57BL/6 mice, 5, 10 and 25 mg/kg/day intraperitoneally (groups 3 to 5) vs group 2 (high-fat diet, saline); relative to tubulin
Description: as §1, §2, §5

ERK-5 = assay: Western blot of ERK-5 in heart tissue of high-fat diet mice; details: high-fat diet C57BL/6 mice, 5, 10 and 25 mg/kg/day intraperitoneally (groups 3 to 5) vs group 2 (high-fat diet, saline); relative to tubulin
Description: as §1, §2, §5

p38α protein = assay: Western blot of p38α protein in heart tissue of high-fat diet mice; details: high-fat diet C57BL/6 mice, 5, 10 and 25 mg/kg/day intraperitoneally (groups 3 to 5) vs group 2 (high-fat diet, saline); relative to tubulin
Description: (§6) The male C57BL/6 mice at the age of 6 weeks were divided into 5 groups for 8 mice in each group. The each group of mice were feed at 24±2° C. of temperature, humidity of 55±10% and 12/12 light cycle for 8 weeks, wherein the group 1 was control group on a normal diet (PMI Nutrition International, Brentwood, Mo., USA) and injected 0.9% saline intraperitoneally; the group 2 was fed high-fat diet to induce the mice into heart hypertrophy model and injected 0.9% saline intraperitoneally; the group 3 was fed high-fat diet and SEQ ID NO.:1 peptide was injected intraperitoneally with the dose of 5 mg/kg/day; the group 4 was fed high-fat diet and SEQ ID NO.:1 peptide was injected intraperitoneally with the dose of 10 mg/kg/day; the group 5 was fed high-fat diet and SEQ ID NO.:1 peptide was injected intraperitoneally with the dose of 25 mg/kg/day. […]
as §2
(§7) The protein extraction of the mice heart tissues from the each group in example 2 were processed by the western blot method in example 3 to observe the expressions of p38α protein and JNK. The results were shown at FIGS. 8 and 9, wherein the tubulin was used for an internal control in FIG. 8 and the expression levels of p38α protein and JNK were calculated basing on the expression level of tubulin in each figure of FIG. 9.

JNK = assay: Western blot of JNK in heart tissue of high-fat diet mice; details: high-fat diet C57BL/6 mice, 5, 10 and 25 mg/kg/day intraperitoneally (groups 3 to 5) vs group 2 (high-fat diet, saline); relative to tubulin
Description: as §6, §2, §7

FGF-2 = assay: Western blot of FGF-2 in heart tissue of high-fat diet mice; details: high-fat diet C57BL/6 mice, 5, 10 and 25 mg/kg/day intraperitoneally (groups 3 to 5) vs group 2 (high-fat diet, saline); relative to tubulin
Description: as §1, §2
(§8) The protein extraction of the mice heart tissues from the each group in example 2 were processed by the western blot method in example 3 to observe the expressions of the related proteins of cardiac fibrosis pathway including: FGF-2, ERK-1, UPA, MMP-2 and MMP-9. The results were shown at FIGS. 10 and 11, wherein the tubulin was used for an internal control in FIG. 10 and the expression levels of FGF-2, ERK-1, UPA, MMP-2 and MMP-9 in the mice heart tissues from the each group was calculated basing on the expression level of tubulin in each figures of FIG. 11.

ERK-1 = assay: Western blot of ERK-1 in heart tissue of high-fat diet mice; details: high-fat diet C57BL/6 mice, 5, 10 and 25 mg/kg/day intraperitoneally (groups 3 to 5) vs group 2 (high-fat diet, saline); relative to tubulin
Description: as §1, §2, §8

UPA = assay: Western blot of UPA in heart tissue of high-fat diet mice; details: high-fat diet C57BL/6 mice, 5, 10 and 25 mg/kg/day intraperitoneally (groups 3 to 5) vs group 2 (high-fat diet, saline); relative to tubulin
Description: as §1, §2, §8

MMP-2 = assay: Western blot of MMP-2 in heart tissue of high-fat diet mice; details: high-fat diet C57BL/6 mice, 5, 10 and 25 mg/kg/day intraperitoneally (groups 3 to 5) vs group 2 (high-fat diet, saline); relative to tubulin
Description: as §1, §2, §8

MMP-9 = assay: Western blot of MMP-9 in heart tissue of high-fat diet mice; details: high-fat diet C57BL/6 mice, 5, 10 and 25 mg/kg/day intraperitoneally (groups 3 to 5) vs group 2 (high-fat diet, saline); relative to tubulin
Description: as §1, §2, §8

ANP = assay: Western blot of ANP in heart tissue of high-fat diet mice; details: high-fat diet C57BL/6 mice, 5, 10 and 25 mg/kg/day intraperitoneally (groups 3 to 5) vs group 2 (high-fat diet, saline); relative to tubulin
Description: as §1, §2
(§9) The protein extraction of the mice heart tissues from the each group in example 2 were processed by the western blot method in example 3 to observe the expressions of the indicator of heart hypertrophy and heart failure. The results were shown at FIGS. 12 and 13, wherein the tubulin was used for an internal control in FIG. 12 and the expression levels of the ANP and BNP in the mice heart tissues from the each group was calculated basing on the expression level of tubulin in each figures of FIG. 13.

BNP = assay: Western blot of BNP in heart tissue of high-fat diet mice; details: high-fat diet C57BL/6 mice, 5, 10 and 25 mg/kg/day intraperitoneally (groups 3 to 5) vs group 2 (high-fat diet, saline); relative to tubulin
Description: as §1, §2, §9

myocardial cells = assay: H&E stained section of heart tissues of high-fat diet mice; details: 15 and 25 mg/kg/day intraperitoneally (groups 3 and 4) vs group 2 (high-fat diet, saline)
Description: The male C57BL/6 mice at the age of 6 weeks were divided into 5 groups for 8 mice in each group. The each group of mice were feed at 24±2° C. of temperature, humidity of 55±10% and 12/12 light cycle for 8 weeks, wherein the group 1 was control group on a normal diet (PMI Nutrition International, Brentwood, Mo., USA) and injected 0.9% saline intraperitoneally; the group 2 was fed high-fat diet to induce the mice into heart hypertrophy model and injected 0.9% saline intraperitoneally; the group 3 was fed high-fat diet and SEQ ID NO.:1 peptide was injected intraperitoneally with the dose of 5 mg/kg/day; the group 4 was fed high-fat diet and SEQ ID NO.:1 peptide was injected intraperitoneally with the dose of 10 mg/kg/day; the group 5 was fed high-fat diet and SEQ ID NO.:1 peptide was injected intraperitoneally with the dose of 25 mg/kg/day. The injection period of each group of mice was between the third week to the sixth week of feeding period. The high-fat diet contained 60% of energy as fat.
The feeding method was the same with example 1. Mice were divided into 4 groups for feeding at different conditions. The intraperitoneal injection was performed between the third week and the sixth week of the feeding period. […]

Substance: SEQ ID NO.:1 peptide: isolated peptide which amino acid sequence is SEQ ID NO.: 1; extracted from organisms, separated by hydrolysis or chemical synthesis (VHVV)
- expression level of Bcl-2 in the heart cell (Bcl-2 protein): obviously increased
- expression level of cytochrome C in the heart cell (cytochrome C): obviously decreased
- expression level of activated caspase-3 in the heart cell (caspase-3): obviously decreased
- expression level of NFTA-C3 in the heart cells [1]: obviously decreased
- expression level of calcineurin in the heart cells (calcineurin): obviously decreased
- expression level of STAT-3 in the heart tissues (STAT-3): obviously lower
- expression level of IL-6 in the heart tissues (IL-6): obviously lower
- expression level of MEK-5 in the heart tissues (MEK-5): obviously lower
- expression level of ERK-5 in the heart tissues (ERK-5): obviously lower
- expression level of p38α protein in the heart cells (p38α protein): significantly lower
- expression level of JNK in the heart cells (JNK): significantly lower
- expression level of FGF-2 (related protein of cardiac fibrosis pathway) in heart tissues (FGF-2): obviously lower
- expression level of ERK-1 (related protein of cardiac fibrosis pathway) in heart tissues (ERK-1): obviously lower
- expression level of UPA (related protein of cardiac fibrosis pathway) in heart tissues (UPA): obviously lower
- expression level of MMP-2 (related protein of cardiac fibrosis pathway) in heart tissues (MMP-2): obviously lower
- expression level of MMP-9 (related protein of cardiac fibrosis pathway) in heart tissues (MMP-9): obviously lower
- expression level of ANP in the heart tissues (ANP): obviously decreased
- expression level of BNP in the heart tissues (BNP): obviously decreased
- arrangement of myocardial cells in H&E stained heart sections (myocardial cells): more orderly and closely and has normal structure of heart muscles
